Results from ChEMBL document CHEMBL1201862, “PubChem BioAssay data set” (2004).
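Growth conditions: 96-well plates. Treatment: test compound, 48 hours, 5 concentrations. Analysis: linear interpolation between bracketing concentrations; unreached endpoints set to highest concentration. GI50 is the concentration that inhibits growth by half.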 Activity calls are given as the source filed them. Cut-off read from the data, not from the text of the source: active = GI50 up to about 1.1 µM and inactive = higher.

Assays:
Assay in all cases: inhibition of tumour cell growth, NCI panel, 48 h
[1] = tested on: RXF 393
[2] = tested on: SF-268
[3] = tested on: MCF7
[4] = tested on: IGROV-1
[5] = tested on: NCI-H23
[6] = tested on: Hs-578T
[7] = tested on: COLO 205
[8] = tested on: SF-539
[9] = tested on: U-251
[10] = tested on: PC-3
[11] = tested on: HT-29
[12] = tested on: NCI-H460
[13] = tested on: OVCAR-4
[14] = tested on: M14
[15] = tested on: BT-549
[16] = tested on: Malme-3M
[17] = tested on: K562
[18] = tested on: CCRF-CEM
[19] = tested on: HL-60
[20] = tested on: SR

Structure (SMILES) | GI50 [1] | GI50 [2] | GI50 [3] | GI50 [4] | GI50 [5] | GI50 [6] | GI50 [7] | GI50 [8] | GI50 [9] | GI50 [10] | GI50 [11] | GI50 [12] | GI50 [13] | GI50 [14] | GI50 [15] | GI50 [16] | GI50 [17] | GI50 [18] | GI50 [19] | GI50 [20]
N#Cc1c(NC(=O)CCC(=O)O)ccc2ccccc12 | > 100 µM (inactive) | > 100 µM (inactive) | > 100 µM (inactive) | > 100 µM (inactive) | > 100 µM (inactive) | > 100 µM (inactive) | > 100 µM (inactive) | > 100 µM (inactive) | > 100 µM (inactive) | > 100 µM (inactive) | > 100 µM (inactive) | > 100 µM (inactive) | > 100 µM (inactive) | > 100 µM (inactive) | > 100 µM (inactive) | > 100 µM (inactive) | > 100 µM (inactive) |  |  | 
O=C(C=P(c1ccccc1)(c1ccccc1)c1ccccc1)c1ccc(-c2cccs2)cc1 | 3.11 µM (inactive) | 12.9 µM (inactive) | 3.41 µM (inactive) | 7.73 µM (inactive) | 8.91 µM (inactive) | 18.5 µM (inactive) | 0.671 µM (active) | 3.97 µM (inactive) | 3.85 µM (inactive) | 4.12 µM (inactive) | 3.75 µM (inactive) | 3.97 µM (inactive) | 2.36 µM (inactive) | 2.57 µM (inactive) | 20.5 µM (inactive) | 4.46 µM (inactive) | 3.59 µM (inactive) | 4.56 µM (inactive) | 2.11 µM (inactive) | 
OC(Cc1cc(CC(O)(C(F)(F)F)C(F)(F)F)nc(CC(O)(C(F)(F)F)C(F)(F)F)c1)(C(F)(F)F)C(F)(F)F | 2.18 µM (inactive) | 1.88 µM (inactive) | 0.826 µM (active) | 0.764 µM (active) | 0.475 µM (active) | 1.03 µM (active) | 0.918 µM (active) | 1.69 µM (inactive) | 1 µM (active) | 0.323 µM (active) | 1.63 µM (inactive) | 0.358 µM (active) | 0.851 µM (active) | 2.43 µM (inactive) | 2.46 µM (inactive) | 2.59 µM (inactive) | > 10 µM (inactive) | > 10 µM (inactive) | > 10 µM (inactive) | 
Cn1c(COC(=O)NC2CCCCC2)c(COC(=O)NC2CCCCC2)c2ccc3cc(Cl)c(Cl)cc3c21 | 6.12 µM (inactive) | 6.4 µM (inactive) | 4.03 µM (inactive) | 17 µM (inactive) | 15.6 µM (inactive) | 3.66 µM (inactive) | 11.7 µM (inactive) | 14.8 µM (inactive) | 6 µM (inactive) | 15.3 µM (inactive) | 27.5 µM (inactive) | 4.41 µM (inactive) |  | 16.5 µM (inactive) | 16.4 µM (inactive) | 6.43 µM (inactive) | 3.61 µM (inactive) | 3.27 µM (inactive) | 9.62 µM (inactive) | 
CC(=O)OC12c3ccccc3C(c3ccccc31)C1C(=O)N(c3ccccn3)C(=O)C12 (centres undefined) | > 100 µM (inactive) | 87.3 µM (inactive) | > 100 µM (inactive) | > 100 µM (inactive) | > 100 µM (inactive) | 14.3 µM (inactive) | 64.6 µM (inactive) | > 100 µM (inactive) | > 100 µM (inactive) | 47.9 µM (inactive) | 62.4 µM (inactive) |  | > 100 µM (inactive) | 51.8 µM (inactive) | 38.8 µM (inactive) | 31.8 µM (inactive) | 39.1 µM (inactive) | 57.1 µM (inactive) | 33.5 µM (inactive) | 
CCCCCc1cc2cc3c(c(O)c2c(=O)[nH]1)C1(CC3)C(=O)c2c(O)c3c(c(O)c2C1=O)C(=O)C(OC)=CC3=O (centres undefined) | 0.877 µM (active) | 0.946 µM (active) | 0.311 µM (active) | 1.28 µM (inactive) | 0.701 µM (active) | 1.53 µM (inactive) | 0.206 µM (active) |  | 0.601 µM (active) | 0.568 µM (active) | 0.718 µM (active) | 0.863 µM (active) | 0.822 µM (active) | 0.893 µM (active) | 1.08 µM (active) | 0.524 µM (active) | 0.456 µM (active) | 0.0859 µM (active) | 0.421 µM (active) | 
CN(C)c1ccc(/C=C(\NC(=O)c2ccccc2)C(=O)NC(CCC(=O)O)C(=O)O)cc1 (centres undefined) | > 100 µM (inactive) | > 100 µM (inactive) | > 100 µM (inactive) | > 100 µM (inactive) | > 100 µM (inactive) | > 100 µM (inactive) | > 100 µM (inactive) | > 100 µM (inactive) | > 100 µM (inactive) | > 100 µM (inactive) | > 100 µM (inactive) | > 100 µM (inactive) | > 100 µM (inactive) | > 100 µM (inactive) | > 100 µM (inactive) | > 100 µM (inactive) | > 100 µM (inactive) | > 100 µM (inactive) | > 100 µM (inactive) | 
[O-][n+]1c2cccc(O)c2[n+]([O-])c2cccc(O)c21 | 60.4 µM (inactive) | 31.8 µM (inactive) | 20.7 µM (inactive) | 6.53 µM (inactive) | 94.6 µM (inactive) | > 100 µM (inactive) | 52.8 µM (inactive) | 32.7 µM (inactive) | 43.3 µM (inactive) | 53.1 µM (inactive) | > 100 µM (inactive) | 30.1 µM (inactive) | 42.7 µM (inactive) | > 100 µM (inactive) | 46 µM (inactive) |  | 39.2 µM (inactive) | 5.56 µM (inactive) | 47.9 µM (inactive) | 
O=C1c2ccccc2C(=O)N1CCCCNOCCCN1C(=O)c2ccccc2C1=O | > 100 µM (inactive) | > 100 µM (inactive) | > 100 µM (inactive) | > 100 µM (inactive) | > 100 µM (inactive) | > 100 µM (inactive) | > 100 µM (inactive) |  | > 100 µM (inactive) | > 100 µM (inactive) | > 100 µM (inactive) | > 100 µM (inactive) | > 100 µM (inactive) | > 100 µM (inactive) | > 100 µM (inactive) | > 100 µM (inactive) | > 100 µM (inactive) | > 100 µM (inactive) |  | > 100 µM (inactive)
Cc1ccc(/C=C/C(=O)Oc2ccc(/C=C3\CCC/C(=C\c4ccc(OC(=O)/C=C/c5ccc(C)cc5)cc4)C3=O)cc2)cc1 |  | > 100 µM (inactive) | > 100 µM (inactive) |  | > 100 µM (inactive) | 19 µM (inactive) | > 100 µM (inactive) | 21.3 µM (inactive) | 34 µM (inactive) | > 100 µM (inactive) | > 100 µM (inactive) | > 100 µM (inactive) | > 100 µM (inactive) | > 100 µM (inactive) | > 100 µM (inactive) |  |  | 60.8 µM (inactive) | 57.4 µM (inactive) | 27.5 µM (inactive)
N=C(N)N/N=C/c1c(-c2ccc(Cl)cc2)nc2sccn12 | 1.35 µM (inactive) | 1.8 µM (inactive) | 1.72 µM (inactive) | 1.85 µM (inactive) | 4.43 µM (inactive) | 4.97 µM (inactive) | 1.46 µM (inactive) | 1.83 µM (inactive) | 1.86 µM (inactive) | 1.62 µM (inactive) | 1.69 µM (inactive) | 1.76 µM (inactive) | 2.06 µM (inactive) | 1.63 µM (inactive) | 3.01 µM (inactive) | 2.71 µM (inactive) | 2.18 µM (inactive) | 1.79 µM (inactive) |  | 3.46 µM (inactive)
